≈ marks a conversion by molar mass, not a printed value.
What was measured:
Hepatitis B Virus = Hepatitis B Virus Test (HBV DNA in supernatant of Hep10A cells, PCR / Southern blot); assay type: cell-based, human Hepatitis B Virus (HBV); details: 240 h
Source text: Plasmids were constructed using standard recombinant DNA techniques; see Sambrook, J., et al., Molecular Cloning: A Laboratory Manual, 2nd Edition (1989), Cold Spring Harbor Press, Cold Spring Harbor, NY. Plasmid pTHBV contains a head-to-tail dimer of the human Hepatitis B Virus (HBV) genome, subtype adw, clone into the EcoR I site of pUC9. […] and subcloned into the Sal I site of pTHBV after a two base fill-in reaction with the Klenow fragment of E. coli DNA polymerase I.
HepG2 cells (human hepatoblastoma, ATCC HB 8065) were routinely passaged in growth medium consisting of EARLE'S minimal essential media (Grand Island Biological Company (GIBCO) Bethesda Research Laboratories (BRL), Life Technologies, Inc., Gathersburg, MD.) supplemented with sodium pyruvate, 10 percent fetal bovine serum, 100 units/ml penicillin, and 100 µg/ml streptomycin. Hep10A cells were derived from HepG2 cells. Briefly, HepG2 cells were seeded into 60 mm culture dishes in growth medium, and when approximately 50 percent confluent, were transfected with pTHBVneo using the calcium phosphate precipitation method described by Graham, F.L. and Van der Eb in Virology, 52, p 456-467 (1973). After four hours of post-transfection, the cells were shocked with 10 percent dimethylsulfoxide and 20 percent glucose for 5 minutes, after which they were allowed to recover for 24 horus. The transfected cells were passaged and reseeded in the presence of growth medium containing 800 µg/ml geneticin. The cells were monitored for the appearance of geneticin resistant cells. A genecitin resistant cell line was established, and routinely passaged in growth medium containing 400 µg/ml geneticin. This cell line will be referred to as Hep10A.
Hep10A cells were seeded into 96-well microtiter plates at a density of approximately 50,000 cells per well, allowed to grow to confluence, and maintained at confluence for 2 to 4 days to allow Hepatitus B Virus derivative HBV DNA levels to stabilize; see Sells, M.A., et al., J. Virol., 62, p 2836-2844 (1987) and Korba, B.E., et al., Antiviral Res., 15, p 217-228 (1991). At this time, cells were treated with 2'-deoxy-2'-fluoroarabino-5-iodouridine (FIAU) and the compound of Example 5 for 10 days, with daily changes of media containing fresh drug. FIAU was used as a positive control. On day 10, culture supernatant samples were taken and stored at 4°C until needed. PCR analysis was performed on supernatant samples using appropriate primers to amplify a 477 base pair fragment from the "a" determinant of the surface antigen gene of HBV subtype adw. Following eletrophoresis through agarose gels, the DNA was transferred to nylon membranes (Optiblot™, IBI, New Haven, CT) by capillary action (Southern, 1975) using 1X saline sodium citrate (SSC) (1X SSC=0.15 M NaCl, 0.015 M sodium citrate). After baking in vacuo for 30 minutes, the blots were hybridized for 15 to 18 hours to 1x10⁶ cpm/ml of […] the method of random priming (Feinberg and Vogelstein, 1983). Hybridization was carried out at 42°C using 50 percent N,N-dimethylformamide, 6X saline sodium phosphate ethylenediamine tetraacetic acid (SSPE), 1.0 percent sodium dodyl sulfate (SDS), and 50 µg/ml salmon sperm DNA (1X SSPE=0.18 M NaCl; […] NaH₂PO₄, pH 7.4; 1 mmol ethylene diamine tetraacetic acid (EDTA)). The hybridized blots were washed as follows: twice in 2X SSC/0.1 percent SDS at room temperature for 1 hour, once in 0.1X SSC/0.1 percent SDS at room temperature for 30 minutes, and once in 0.1x SSC/0.1 percent supplemented with SDS at 65°C for 15 minutes. The filters were exposed to x-ray film and quantitated by densitometry.

[1] = tested on: human leukemia cells (CCRF-CEM cell line); test: Growth inhibition of human leukemia cells (CCRF-CEM cytotoxicity screen); assay type: cell-based; details: Homo sapiens, CCRF-CEM
Source text: In another aspect, the invention provides a method of treating susceptible neoplasms in mammals comprising administering to a mammal in need of such treatment a pharmaceutically effective amount of a compound of formula (I). […] The treatment contemplated by the present method includes both medical therapeutic and prophylactic treatment, as appropriate. The specific dosage level of the compound administered according to this invention will, of course, be determined by the circumstances surrounding the case, including, for example, the particular compound administered, the route of administration, and the condition being treated. The compounds are effectively administered orally, topically, or parenterally. […] The representative compounds of formula (I) employed in the present invention are cytotoxic as they inhibit the growth of rapidly dividing human leukemia cells (CCRF-CEM cell line). Table 1 below gives the results of testing several compounds representative of formula (I).

[2] = read-out: Percent Inhibition at Specified µg/ml conc.

**Q.** What does the source list for `CNc1nc(N)nc2c1ncn2[C@@H]1O[C@H](CO)[C@@H](O)C1(F)F` [Example 5, 2-deoxy-2,2-difluoro-D-ribofuranosyl-1-β-(2-amino-6-methylaminopurine)]?
**A.** inhibition at 0.1 µg/mL (Hepatitis B Virus; [2]): 56.9%; inhibition at 1 µg/mL (Hepatitis B Virus; [2]): 81.9%; inhibition at 10 µg/mL (Hepatitis B Virus; [2]): 84.6%; inhibition at 100 µg/mL (Hepatitis B Virus; [2]): 83.9%; IC50 (Hepatitis B Virus; read-out: concentration required to inhibit HBV DNA replication by 50 percent): < 0.1 µg/mL; IC50 [1]: 0.054 µg/mL (≈ 0.171 µM)

Reference: patent publication EP0576227A2, “2'-Deoxy-2',2'-difluoro(2,6,8-substituted) purine nucleosides having anti-viral and anti-cancer activity and intermediates” (ELI LILLY AND COMPANY, priority 1992, dated 1993)
